# Measurements from ChEMBL document CHEMBL1212927, “Synthesis and structure-activity relationships of novel 8a-aza-8a-homoerythromycin A ketolides” (2010).
# Legend:
# Staphylococcus aureus [1] = test: Antibacterial activity against erythromycin A-susceptible Staphylococcus aureus B0329 by agar microdilution method
# Streptococcus pneumoniae [2] = test: Antibacterial activity against efflux-resistant Streptococcus pneumoniae B0326 by agar microdilution method; assay type: functional
# Moraxella catarrhalis = test: Antibacterial activity against Moraxella catarrhalis B0324 by agar microdilution method; assay type: functional
# Staphylococcus aureus [3] = test: Antibacterial activity against inducible macrolide-lincosamide-streptogramin B-resistant Staphylococcus aureus B0538 by agar microdilution method; assay type: functional
# Streptococcus pneumoniae [4] = test: Antibacterial activity against constitutive macrolide-lincosamide-streptogramin B-resistant Streptococcus pneumoniae B0627 by agar microdilution method; assay type: functional
# Streptococcus pneumoniae [5] = test: Antibacterial activity against erythromycin-susceptible Streptococcus pneumoniae B0541 by agar microdilution method
# Streptococcus pyogenes [6] = test: Antibacterial activity against inducible macrolide-lincosamide-streptogramin B-resistant Streptococcus pyogenes B0543 by agar microdilution method; assay type: functional
# Streptococcus pyogenes [7] = test: Antibacterial activity against efflux-resistant Streptococcus pyogenes B0545 by agar microdilution method; assay type: functional
# Haemophilus influenzae = test: Antibacterial activity against Haemophilus influenzae B0529 by agar microdilution method; assay type: functional
# Staphylococcus aureus [8] = test: Antibacterial activity against constitutive macrolide-lincosamide-streptogramin B-resistant Staphylococcus aureus B0330 by agar microdilution method; assay type: functional
# Streptococcus pyogenes [9] = test: Antibacterial activity against constitutive macrolide-lincosamide-streptogramin B-resistant Streptococcus pyogenes B0544 by agar microdilution method; assay type: functional
# Staphylococcus aureus [10] = test: Antibacterial activity against efflux-resistant Staphylococcus aureus B0331 by agar microdilution method; assay type: functional
# Streptococcus pyogenes [11] = test: Antibacterial activity against erythromycin A-susceptible Streptococcus pyogenes B0542 by agar microdilution method
Compound,MIC (Staphylococcus aureus [1]),MIC (Streptococcus pneumoniae [2]),MIC (Moraxella catarrhalis),MIC (Staphylococcus aureus [3]),MIC (Streptococcus pneumoniae [4]),MIC (Streptococcus pneumoniae [5]),MIC (Streptococcus pyogenes [6]),MIC (Streptococcus pyogenes [7]),MIC (Haemophilus influenzae),MIC (Staphylococcus aureus [8]),MIC (Streptococcus pyogenes [9]),MIC (Staphylococcus aureus [10]),MIC (Streptococcus pyogenes [11])
CC[C@H]1OC(=O)[C@H](C)C(=O)[C@H](C)[C@@H](O[C@@H]2O[C@H](C)C[C@H](N(C)C)[C@H]2O)[C@](C)(OCC2CO2)C[C@@H](C)NC(=O)[C@H](C)[C@@H](O)[C@]1(C)O (stereo partly drawn),4 µg/mL,8 µg/mL,16 µg/mL,> 64 µg/mL,> 64 µg/mL,2 µg/mL,> 64 µg/mL,8 µg/mL,32 µg/mL,> 64 µg/mL,> 64 µg/mL,16 µg/mL,4 µg/mL
CC[C@H]1OC(=O)[C@H](C)C(=O)[C@H](C)[C@@H](O[C@@H]2O[C@H](C)C[C@H](N(C)C)[C@H]2O)[C@](C)(OCC(O)CNCc2ccc3ncccc3c2)C[C@@H](C)NC(=O)[C@H](C)[C@@H](O)[C@]1(C)O (stereo partly drawn),0.5 µg/mL,1 µg/mL,1 µg/mL,0.5 µg/mL,4 µg/mL,≤ 0.125 µg/mL,2 µg/mL,2 µg/mL,1 µg/mL,> 64 µg/mL,8 µg/mL,0.25 µg/mL,≤ 0.125 µg/mL
CC[C@H]1OC(=O)[C@H](C)C(=O)[C@H](C)[C@@H](O[C@@H]2O[C@H](C)C[C@H](N(C)C)[C@H]2O)[C@](C)(OC[C@H](O)CNCCNc2ccc3ncccc3c2)C[C@@H](C)NC(=O)[C@H](C)[C@@H](O)[C@]1(C)O,≤ 0.125 µg/mL,0.25 µg/mL,0.5 µg/mL,0.25 µg/mL,0.5 µg/mL,≤ 0.125 µg/mL,0.5 µg/mL,0.5 µg/mL,0.5 µg/mL,> 64 µg/mL,4 µg/mL,0.5 µg/mL,≤ 0.125 µg/mL
CC[C@H]1OC(=O)[C@H](C)C(=O)[C@H](C)[C@@H](O[C@@H]2O[C@H](C)C[C@H](N(C)C)[C@H]2O)[C@](C)(OCC(O)CN2CCN(c3ccc(F)cc3)CC2)C[C@@H](C)NC(=O)[C@H](C)[C@@H](O)[C@]1(C)O (stereo partly drawn),4 µg/mL,16 µg/mL,4 µg/mL,16 µg/mL,32 µg/mL,0.5 µg/mL,4 µg/mL,4 µg/mL,32 µg/mL,> 64 µg/mL,> 64 µg/mL,16 µg/mL,≤ 0.125 µg/mL
CC[C@H]1OC(=O)[C@H](C)C(=O)[C@H](C)[C@@H](O[C@@H]2O[C@H](C)C[C@H](N(C)C)[C@H]2O)[C@](C)(OC[C@@H](O)CNCCNc2ccc3ncccc3c2)C[C@@H](C)NC(=O)[C@H](C)[C@@H](O)[C@]1(C)O,≤ 0.125 µg/mL,≤ 0.125 µg/mL,≤ 0.125 µg/mL,0.25 µg/mL,≤ 0.125 µg/mL,≤ 0.125 µg/mL,≤ 0.125 µg/mL,0.5 µg/mL,0.25 µg/mL,> 64 µg/mL,1 µg/mL,0.25 µg/mL,≤ 0.125 µg/mL
CC[C@H]1OC(=O)[C@H](C)C(=O)[C@H](C)[C@@H](O[C@@H]2O[C@H](C)C[C@H](N(C)C)[C@H]2O)[C@](C)(OCC(O)CN[C@H](C)Cc2ccc(OC)cc2)C[C@@H](C)NC(=O)[C@H](C)[C@@H](O)[C@]1(C)O (mixture of isomers),1 µg/mL,16 µg/mL,0.5 µg/mL,2 µg/mL,2 µg/mL,≤ 0.125 µg/mL,1 µg/mL,1 µg/mL,16 µg/mL,> 64 µg/mL,8 µg/mL,4 µg/mL,0.5 µg/mL
CC[C@H]1OC(=O)[C@H](C)C(=O)[C@H](C)[C@@H](O[C@@H]2O[C@H](C)C[C@H](N(C)C)[C@H]2O)[C@](C)(OCC(O)CNCCc2ccccc2)C[C@@H](C)NC(=O)[C@H](C)[C@@H](O)[C@]1(C)O (mixture of isomers),4 µg/mL,16 µg/mL,0.5 µg/mL,16 µg/mL,8 µg/mL,0.25 µg/mL,1 µg/mL,1 µg/mL,16 µg/mL,> 64 µg/mL,16 µg/mL,8 µg/mL,0.5 µg/mL
CC[C@H]1OC(=O)[C@H](C)C(=O)[C@H](C)[C@@H](O[C@@H]2O[C@H](C)C[C@H](N(C)C)[C@H]2O)[C@](C)(OCC(O)CNCCCCc2cccnc2)C[C@@H](C)NC(=O)[C@H](C)[C@@H](O)[C@]1(C)O (stereo partly drawn),0.5 µg/mL,1 µg/mL,≤ 0.125 µg/mL,1 µg/mL,0.5 µg/mL,≤ 0.125 µg/mL,≤ 0.125 µg/mL,0.5 µg/mL,2 µg/mL,> 64 µg/mL,4 µg/mL,1 µg/mL,≤ 0.125 µg/mL
C=CCO[C@]1(C)C[C@@H](C)NC(=O)[C@H](C)[C@@H](O)[C@](C)(O)[C@@H](CC)OC(=O)[C@H](C)C(=O)[C@H](C)[C@H]1O[C@@H]1O[C@H](C)C[C@H](N(C)C)[C@H]1O,8 µg/mL,4 µg/mL,8 µg/mL,> 64 µg/mL,> 64 µg/mL,1 µg/mL,> 64 µg/mL,8 µg/mL,16 µg/mL,> 64 µg/mL,> 64 µg/mL,16 µg/mL,4 µg/mL
CC[C@H]1OC(=O)[C@H](C)C(=O)[C@H](C)[C@@H](O[C@@H]2O[C@H](C)C[C@H](N(C)C)[C@H]2O)[C@](C)(OCC(O)CNCCCCc2ccccc2)C[C@@H](C)NC(=O)[C@H](C)[C@@H](O)[C@]1(C)O (mixture of isomers),2 µg/mL,4 µg/mL,≤ 0.125 µg/mL,2 µg/mL,1 µg/mL,≤ 0.125 µg/mL,0.5 µg/mL,0.5 µg/mL,8 µg/mL,> 64 µg/mL,8 µg/mL,2 µg/mL,0.25 µg/mL
CC[C@H]1OC(=O)[C@H](C)C(=O)[C@H](C)[C@@H](O[C@@H]2O[C@H](C)C[C@H](N(C)C)[C@H]2O)[C@](C)(OCC(O)CN2CCN(c3ccc([N+](=O)[O-])cc3)CC2)C[C@@H](C)NC(=O)[C@H](C)[C@@H](O)[C@]1(C)O (stereo partly drawn),1 µg/mL,2 µg/mL,0.5 µg/mL,2 µg/mL,4 µg/mL,≤ 0.125 µg/mL,2 µg/mL,1 µg/mL,8 µg/mL,> 64 µg/mL,8 µg/mL,2 µg/mL,0.25 µg/mL
CC[C@H]1OC(=O)[C@H](C)C(=O)[C@H](C)[C@@H](O[C@@H]2O[C@H](C)C[C@H](N(C)C)[C@H]2O)[C@](C)(OCC(O)CNCCc2ccc([N+](=O)[O-])cc2)C[C@@H](C)NC(=O)[C@H](C)[C@@H](O)[C@]1(C)O (mixture of isomers),≤ 0.125 µg/mL,0.5 µg/mL,≤ 0.125 µg/mL,1 µg/mL,≤ 0.125 µg/mL,≤ 0.125 µg/mL,0.25 µg/mL,0.25 µg/mL,1 µg/mL,> 64 µg/mL,1 µg/mL,1 µg/mL,≤ 0.125 µg/mL
CC[C@H]1OC(=O)[C@H](C)C(=O)[C@H](C)[C@@H](O[C@@H]2O[C@H](C)C[C@H](N(C)C)[C@H]2O)[C@](C)(OCC(O)CNCCc2cccnc2)C[C@@H](C)NC(=O)[C@H](C)[C@@H](O)[C@]1(C)O (stereo partly drawn),4 µg/mL,8 µg/mL,1 µg/mL,8 µg/mL,2 µg/mL,0.5 µg/mL,4 µg/mL,2 µg/mL,8 µg/mL,> 64 µg/mL,32 µg/mL,4 µg/mL,0.25 µg/mL
CC[C@H]1OC(=O)[C@H](C)C(=O)[C@H](C)[C@@H](O[C@@H]2O[C@H](C)C[C@H](N(C)C)[C@H]2O)[C@](C)(OCC(O)CN[C@H](C)Cc2ccc([N+](=O)[O-])cc2)C[C@@H](C)NC(=O)[C@H](C)[C@@H](O)[C@]1(C)O (mixture of isomers),0.5 µg/mL,1 µg/mL,0.25 µg/mL,2 µg/mL,2 µg/mL,≤ 0.125 µg/mL,0.5 µg/mL,0.5 µg/mL,1 µg/mL,> 64 µg/mL,4 µg/mL,2 µg/mL,≤ 0.125 µg/mL
CC[C@H]1OC(=O)[C@H](C)C(=O)[C@H](C)[C@@H](O[C@@H]2O[C@H](C)C[C@H](N(C)C)[C@H]2O)[C@](C)(OCC(O)CN2CCN(c3ccc4ncccc4c3)CC2)C[C@@H](C)NC(=O)[C@H](C)[C@@H](O)[C@]1(C)O (stereo partly drawn),0.25 µg/mL,0.5 µg/mL,1 µg/mL,0.25 µg/mL,1 µg/mL,≤ 0.125 µg/mL,0.25 µg/mL,2 µg/mL,2 µg/mL,> 64 µg/mL,4 µg/mL,2 µg/mL,≤ 0.125 µg/mL
CC[C@H]1OC(=O)[C@H](C)C(=O)[C@H](C)[C@@H](O[C@@H]2O[C@H](C)C[C@H](N(C)C)[C@H]2O)[C@](C)(OCC(O)CNCCCc2cccnc2)C[C@@H](C)NC(=O)[C@H](C)[C@@H](O)[C@]1(C)O (stereo partly drawn),2 µg/mL,4 µg/mL,0.5 µg/mL,4 µg/mL,1 µg/mL,0.25 µg/mL,0.5 µg/mL,1 µg/mL,16 µg/mL,> 64 µg/mL,16 µg/mL,4 µg/mL,≤ 0.125 µg/mL
